Drawing on PubChem BioAssay AID504861 (Broad Institute, 2011), this text covers AC50 for 101 molecules.

The source made the active and inactive calls.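 The calls were made as follows: active = compounds lowering cell viability signal with fitted half-maximal concentration at most ten times their highest tested concentration; inconclusive = flat fit with 30 to 70% signal loss, or poor fit; inactive = the rest.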 A value given as a limit tells only on which side of the number the result lay.

The subject of the assay is HEK293T viability, CellTiter-Glo ATP luminescence, 48 h. Description: cytotoxicity in HEK293T cells – cell-based, CellTiter-Glo luminescence, cherry-picks, cytotoxicity control for LMP1 NF-kB inhibitor project, dose response (AID 504861). For orientation: Cellular ATP, detected with luciferase, serves as a proxy for viable cell number.
The term AC50 denotes the midpoint of the concentration-response curve, whichever way the signal moves. Regarding `CN(Cc1cnc2nc(N)nc(N)c2n1)c1ccc(C(=O)N[C@@H](CCC(=O)O)C(=O)O)cc1`, the concentration at half-maximal activity (AC50) was 0.016 µM.
In the case of `COc1ccccc1NC(=S)NN=C(C)c1ccccn1`, the AC50 is 0.403 µM.
Turning to `CC1(C)N=C(N)N=C(N)N1c1ccc(CCCCc2ccccc2)cc1`, the AC50 is 0.406 µM.
As to `OC1(c2cccc(C(F)(F)F)c2)CCN(c2ncnc3c2[nH]c2ccc(F)cc23)CC1`, the AC50 was 17.8 µM.
In the case of `CC(C)C(=O)NC(c1ccc(Cl)cc1Cl)c1ccc2cccnc2c1O` (stereo unspecified), the concentration at half-maximal activity (AC50) was 3 µM.
For `COc1ccc(C(NC(C)=O)c2cc(Cl)c3cccnc3c2O)cc1` (stereo unspecified), the half-maximal activity concentration (AC50) was 4.88 µM.
With `CCCC(=O)NC(c1cccc([N+](=O)[O-])c1)c1ccc2cccnc2c1O` (stereo unspecified), the AC50 is 3.59 µM.
For `CC(=O)NC(c1cccs1)c1cc(F)c2cccnc2c1O` (stereo unspecified), the half-maximal activity concentration (AC50) was 4.67 µM.
For the molecule `Cc1[nH]n(-c2ccccc2)c(=O)c1/C=N/Nc1nncc(-c2ccccc2)n1`, the AC50 is 2.64 µM.
For the molecule `Cc1csc(SCC(=O)c2cc(C)n(Cc3cccs3)c2C)n1`, the AC50 was > 26 µM (inactive).
As to `CC(=NNC(=S)Nc1ccccc1)c1ccccn1`, the AC50 is 1.56 µM.
For the molecule `CCOc1ccc(Br)cc1/C(C)=N\NC1=NCCN1`, the concentration at half-maximal activity (AC50) is 3.69 µM.
On to `Cc1oc2c(c1C(=O)c1ccc(Cl)cc1)C(=O)C(=O)c1ccccc1-2`, for which the half-maximal activity concentration (AC50) was 4.37 µM.
In the case of `Nc1ccc(C(=O)N/N=C\c2cc(N=Nc3cccc4ccccc34)ccc2O)cc1`, the AC50 is 26.5 µM.
Consider `CCN(CC)S(=O)(=O)c1cccc(NC(=O)Nc2cccc(C(F)(F)F)c2)c1`, for which the half-maximal activity concentration (AC50) is 19.1 µM.
As for `COc1ccc(C(=O)C(CN2CCOCC2)c2ccccc2)cc1F` (stereo unspecified), the AC50 is 8.32 µM.
For the molecule `CCCCC(=O)NC(c1ccc(N(CC)CC)cc1)c1ccc2cccnc2c1O` (stereo unspecified), the concentration at half-maximal activity (AC50) is 1.54 µM.
Take `Cc1csc(N=Nc2ccc(N(C)C)cc2)[n+]1[O-]`: the concentration at half-maximal activity (AC50) was 5.71 µM.
As for `c1ccc(CCNc2nc(-c3ccccn3)nc3ccccc23)cc1`, the concentration at half-maximal activity (AC50) is 1.13 µM.
For the molecule `c1ccc(CCCN2CCN(CCOC(c3ccccc3)c3ccccc3)CC2)cc1`, the half-maximal activity concentration (AC50) is 16.5 µM.
Consider `CCN(CC)CCC(=O)N1C/C(=C/c2ccccc2)C(=O)/C(=C\c2ccccc2)C1`, for which the concentration at half-maximal activity (AC50) was 3.88 µM.
The figure for `O=C(N/N=C/c1c(O)ccc2ccccc12)c1ccc(Br)o1` is 4.46 µM; for `COc1ccc2[nH]c(-c3ccc(C)cc3)cc(=O)c2c1` it is > 26 µM (inactive).
`Cc1ccc2[nH]c(C(=O)N/N=C/c3ccccc3O)c(C)c2c1`: the half-maximal activity concentration (AC50) was 3.52 µM.
On to `Cc1ccsc1/C=C/c1ccc2ccccc2n1`, for which the AC50 is 25.6 µM.
In the case of `c1ccc(-c2nc(-c3ccccn3)no2)cc1`, the AC50 is 7.87 µM.
The figure for `CCOc1ccc(/C=C/[N+](=O)[O-])c2ccccc12` is 11.8 µM; for `COc1cc2c(cc1OC)C(c1ccc(-c3ccccc3Cl)o1)=NCC2` it is 21 µM; for `O=C(O)c1cc(/C=C/c2ccc(N3CCOCC3)cc2)nc2ccccc12` it is > 26 µM (inactive).
Turning to `S=C(NCCCN1CCOCC1)N1CCN(c2nc(-c3ccc(Cl)cc3)cs2)CC1`, the AC50 is > 26 µM (inactive).
The result for `Oc1cccc2ccc(Nc3ccccn3)nc12` reads 8.91 µM; that for `CCc1cc2c(N3CCN(c4ccccc4)CC3)ncnc2s1`, 26.4 µM; that for `CN(C)c1ccc(-c2nc3ccccc3n2C)cc1`, 14.1 µM.
As to `C=CCNC(=S)N/N=C(\C)c1ccccn1`, the AC50 was 2.06 µM.
Consider `COc1ccc(NC2=NCC(Cc3ccc(Br)cc3)S2)cc1` (stereo unspecified), for which the concentration at half-maximal activity (AC50) was 26.2 µM.
Turning to `CCCCC(=O)NC(c1ccc(Cl)cc1)c1ccc2cccnc2c1O` (stereo unspecified), the AC50 was 4.35 µM.
`CCC(NC(=O)Nc1nnc(C(F)(F)F)s1)(C(F)(F)F)C(F)(F)F`: the AC50 is 9.8 µM.
Take `Cc1cc(C)nc(SCc2ccc(C(=O)N/N=C/c3cccc(O)c3O)cc2)n1`: the AC50 was 20.3 µM.
The figure for `COc1cccc(/C=N/Nc2nccnc2Cl)c1O` is 3.79 µM; for `CC(=O)NC(c1ccc2ccccc2c1)c1ccc2cccnc2c1O` (stereo unspecified) it is 1.32 µM; for `c1ccc(-c2cccc(-c3ccccn3)n2)nc1` it is 1.77 µM.
Regarding `C#CCN(C[C@@H]1[C@@H](OC(=O)NCCCCCC)[C@@H](OC(=O)NCCCCCC)Cn2c(=O)ccc(=O)n21)S(=O)(=O)c1ccc(C)cc1`, the concentration at half-maximal activity (AC50) was 4.1 µM.
On to `CCC(=O)NC(c1ccc(Cl)cc1Cl)c1ccc2cccnc2c1O` (stereo unspecified), for which the concentration at half-maximal activity (AC50) was 8.21 µM.
Consider `COc1ccccc1/C=C/C(=O)c1ccc(Cl)cc1`, for which the AC50 was 12.4 µM.
Take `CC(=O)NC(c1ccc(C(C)C)cc1)c1ccc2cccnc2c1O` (stereo unspecified): the AC50 was 1.2 µM.
The figure for `CCCCC(=O)NC(c1ccc(OC)c(OC)c1)c1ccc2cccnc2c1O` (stereo unspecified) is 4.63 µM; for `CS(=O)(=O)c1ncc(Cl)c(C(=O)Nc2ccc(OC(F)F)cc2)n1` it is 3.2 µM; for `Cc1cccc(-n2ncc(Cl)c(Cl)c2=O)c1` it is 5.2 µM.
In the case of `COc1ccccc1-c1nc(-c2ccccn2)no1`, the concentration at half-maximal activity (AC50) is 5.63 µM.
In the case of `CC(C)CC(=NNC(=O)c1ccncc1)c1cc(Cl)ccc1O`, the AC50 was 3.12 µM.
`C#CCN(C[C@@H]1[C@@H](OC(=O)NCc2ccccc2F)[C@@H](OC(=O)NCc2ccccc2F)Cn2c(=O)ccc(=O)n21)S(=O)(=O)c1ccc(C)cc1`: the AC50 is 7.27 µM.
With `C=CCn1c(O)c(N=NC(=S)Nc2cccc(C)c2)c2ccccc21`, the AC50 is > 26 µM (inactive).
The result for `O=C(Nc1ccc2c(c1)OCCO2)c1ccccn1` reads 21.2 µM; that for `C#CCN(C[C@@H]1[C@@H](OC(=O)NCC2CCCCC2)[C@@H](OC(=O)NCC2CCCCC2)Cn2c(=O)ccc(=O)n21)S(=O)(=O)c1ccc(C)cc1`, 4.63 µM; that for `O=C(CCc1ccccc1)NC(c1cccs1)c1cc(Cl)c2cccnc2c1O` (stereo unspecified), 9.28 µM.
With `C=C1C(=O)C2=CC1CCC(=O)C1(C)CCC(OC(C)=O)C(C)(C)C1CC2O` (stereo unspecified), the AC50 was 11.3 µM.
The figure for `CC(=NNC(=S)N1CCCC1)c1ccccn1` is 4.56 µM; for `O=C(Nc1nnc(SCc2ccc(F)cc2)s1)c1ccccn1` it is 25.9 µM.
As for `CCC(=O)NC(c1cc(Cl)c2cccnc2c1O)C(C)C` (stereo unspecified), the AC50 was 9.32 µM.
For the molecule `Cc1ccc2[nH]c3c(N4CCN(Cc5ccccc5)CC4)ncnc3c2c1`, the half-maximal activity concentration (AC50) is 12.2 µM.
Turning to `O=C(N/N=C/c1cc2c3c(c1O)CCCN3CCC2)c1ccccc1O`, the AC50 is 4.17 µM.
The result for `CC(=NNc1nc2ccccc2s1)c1ncccn1` reads 13.8 µM; that for `O=[N+]([O-])c1c(Nc2cccc(O)c2)cc(Cl)c2nonc12`, 4.39 µM.
In the case of `CCCC(=O)NC(c1ccccc1Cl)c1ccc2cccnc2c1O` (stereo unspecified), the AC50 was 4.36 µM.
For `COc1cccc(/C=N/Nc2ncccc2[N+](=O)[O-])c1OC`, the AC50 was 18.8 µM.
As to `Cc1cc(Sc2nnc(N)s2)c2ccccc2n1`, the AC50 is 3.34 µM.
`CCN(CC)c1ccc(C(NC(=O)C(C)C)c2ccc3cccnc3c2O)cc1` (stereo unspecified): the AC50 was 4.34 µM.
The result for `Oc1ccc2ccccc2c1N=Nc1ccccn1` reads 3.42 µM; that for `O=C(CCl)N(c1ccc(Cl)cc1)c1c[nH]c2ccccc12`, 1.19 µM.
Regarding `O=C(N/N=C/c1ccc[nH]1)c1ccc(COc2cccc3cccnc23)cc1`, the AC50 was 3.99 µM.
For the molecule `c1ccc(CN2CCN(c3ncnc4c3[nH]c3ccccc34)CC2)cc1`, the concentration at half-maximal activity (AC50) was 11.8 µM.
As for `O=C(N/N=C/c1c(O)ccc2ccccc12)c1cccnc1`, the AC50 is 8.72 µM.
For the molecule `CCN(CC)C(=O)c1ccc(NC(=O)Nc2ccccc2F)cc1`, the half-maximal activity concentration (AC50) was 2.41 µM.
On to `CC(=O)NC(c1ccc(Cl)cc1)c1ccc2cccnc2c1O` (stereo unspecified), for which the AC50 was 1.16 µM.
With `COc1ccc2c(c1)/C(=C/c1cnc[nH]1)C(=O)N2`, the AC50 is 23.1 µM.
Consider `CCN1CCN(Cc2ccc(NC(=O)c3ccc(C)c(NC(=O)c4cccc5[nH]ccc45)c3)cc2C(F)(F)F)CC1`, for which the AC50 was 22.3 µM.
The result for `COc1cnc(-c2ccccn2)nc1Sc1ccccc1Cl` reads 18.8 µM; that for `CC(=NNc1nc2ccccc2o1)c1cc2ccccc2cn1`, 0.252 µM.
With `CCN1CCN(Cc2ccc(NC(=O)c3ccc(C)c(NC(=O)c4c[nH]c5cc(C(F)(F)F)ccc5c4=O)c3)cc2C(F)(F)F)CC1`, the AC50 was 4.09 µM.
Consider `NC(=S)N/N=C/c1ncc(C(F)(F)F)cc1Cl`, for which the AC50 is 17.9 µM.
The figure for `O=C(c1ccccc1)C(CCC(CN1CCOCC1)C(=O)c1ccccc1)CN1CCOCC1` (stereo unspecified) is 2.57 µM.
Turning to `O=C(N/N=C/c1sc2ccccc2c1O)c1cccc2ccccc12`, the AC50 is 4.96 µM.
Regarding `CCOc1ccc(OCc2cccc(C(=O)N/N=C/c3cccnc3)c2)cc1`, the AC50 was > 26 µM (inactive).
With `CCOc1ccc(OCC(=O)Nc2nccs2)cc1`, the half-maximal activity concentration (AC50) is 11.3 µM.
`CC(=NNC(=S)N1CCCCCC1)c1ccccn1`: the AC50 was 2.18 µM.
Turning to `CCOc1ccc(C(=O)Nc2cc(C)ccn2)cc1`, the half-maximal activity concentration (AC50) was 13.8 µM.
Consider `C[n+]1c2n(c3ccccc31)N=C(c1cc(C(C)(C)C)c(O)c(C(C)(C)C)c1)CS2`, for which the AC50 is 9.45 µM.
As to `CC(C)OC(=O)c1ccc(NCc2cc(O)ccc2O)cc1Cl`, the AC50 was 6.74 µM.
With `c1ccn2cc(-c3ccc4c(c3)OCCO4)nc2c1`, the AC50 was 16.1 µM.
With `C=CCn1c(O)c(N=NC(=S)Nc2ccccc2F)c2cc(S(=O)(=O)N3CCOCC3)ccc21`, the AC50 is > 26 µM (inactive).
As for `CCCCC(=O)NC(c1ccc(OC)cc1)c1ccc2cccnc2c1O` (stereo unspecified), the AC50 was 16.2 µM.
`C/C(=N\NC(=O)c1cccc(Br)c1)c1ccccn1`: the AC50 is 3.59 µM.
The figure for `O=C(Nc1nc2ccc(F)cc2s1)C1=COCCO1` is 18.7 µM; for `COc1ccccc1N(C(C)=O)C1=C(Cl)C(=O)c2ccccc2C1=O` it is 11.7 µM.
As for `Cc1ccc(C(=O)Nc2ccc3c(c2)OCCO3)c(Cl)c1`, the AC50 was > 26 µM (inactive).
For `CC(=NNC(=S)Nc1cccc(Cl)c1)c1ccccn1`, the half-maximal activity concentration (AC50) was 0.687 µM.
Turning to `CCC(=O)NC(c1ccc(C)cc1)c1ccc2cccnc2c1O` (stereo unspecified), the AC50 was 4.33 µM.
Take `COc1ccc(/C=C/c2nc3ccccc3n2C)cc1`: the AC50 was 2.27 µM.
The figure for `COc1ccc(/C=N/Nc2cc(C)nc3ccc(OC)cc23)c(OC)c1` is 5.04 µM; for `C#CCn1c(S(=O)(=O)Cc2ccc(F)cc2)nc(-c2ccccc2)c1-c1ccccc1` it is > 26 µM (inactive).
As to `Nc1nc2ccccc2n1C(=O)c1ccccc1`, the AC50 is > 26 µM (inactive).
